From patent US6656497B2, “Liposomal vector for active-principle” (Lipogel, priority 1997, dated 2003)

Key:
[1] = massive oral administration of peptide; cited from earlier work
[2] = Passage of orally administered free calcitonin across the intestinal barrier; assay type: in vivo; settings: 330 IU administered orally
Protocol: It is explained by the fact that during a massive administration of peptide such as calcitonin, a small percentage crosses the intestinal barrier (1%) without being denatured. In this case, 330 IU were administered, which corresponds to a lymphatic passage of 3.3 IU (passage from the intestinal lumen into the plasma, via the lymphatic canal pathway). However, the IV-route effect of calcitonin starts at 0.9 IU. It is thus normal to observe this effect of free calcitonin. The hypocalcaemia observed after oral administration of calcitonin decreases over time to return to the normal level after 90 min.

CC(C)C[C@H](NC(=O)[C@H](CCCCN)NC(=O)CNC(=O)[C@H](CC(C)C)NC(=O)[C@@H](NC(=O)[C@@H]1CSSC[C@H](N)C(=O)N[C@@H](CO)C(=O)N[C@@H](CC(N)=O)C(=O)N[C@@H](CC(C)C)C(=O)N[C@@H](CO)C(=O)N[C@@H]([C@@H](C)O)C(=O)N1)C(C)C)C(=O)N[C@@H](CO)C(=O)N[C@@H](CCC(N)=O)C(=O)N[C@@H](CCC(=O)O)C(=O)N[C@@H](CC(C)C)C(=O)N[C@@H](Cc1c[nH]cn1)C(=O)N[C@@H](CCCCN)C(=O)N[C@@H](CC(C)C)C(=O)N[C@@H](CCC(N)=O)C(=O)N[C@H](C(=O)N[C@@H](Cc1ccc(O)cc1)C(=O)N1CCC[C@H]1C(=O)N[C@@H](CCCNC(=N)N)C(=O)N[C@H](C(=O)N[C@@H](CC(N)=O)C(=O)N[C@H](C(=O)NCC(=O)N[C@@H](CO)C(=O)NCC(=O)N[C@H](C(=O)N1CCC[C@H]1C(N)=O)[C@@H](C)O)[C@@H](C)O)[C@@H](C)O)[C@@H](C)O [free calcitonin, salmon calcitonin]
percentage crossing the intestinal barrier without being denatured [1]: 1% | lymphatic passage (intestinal lumen into plasma via lymphatic canal pathway) [2]: 3.3 IU
